Experimental data from ChEMBL document CHEMBL1145094, “A novel and selective 5-HT2 receptor agonist with ocular hypotensive activity: (S)-(+)-1-(2-aminopropyl)-8,9-dihydropyrano[3,2-e]indole” (J Med Chem, 2003).

What was measured:
[1] = target: T1, 5-hydroxytryptamine receptor 1A (Homo sapiens, UniProt P08908); test: Tested for functional response on CHO cells expressing cloned human 5-hydroxytryptamine 1A receptor; format: cell-based
T1 sequence (P08908 whole entry): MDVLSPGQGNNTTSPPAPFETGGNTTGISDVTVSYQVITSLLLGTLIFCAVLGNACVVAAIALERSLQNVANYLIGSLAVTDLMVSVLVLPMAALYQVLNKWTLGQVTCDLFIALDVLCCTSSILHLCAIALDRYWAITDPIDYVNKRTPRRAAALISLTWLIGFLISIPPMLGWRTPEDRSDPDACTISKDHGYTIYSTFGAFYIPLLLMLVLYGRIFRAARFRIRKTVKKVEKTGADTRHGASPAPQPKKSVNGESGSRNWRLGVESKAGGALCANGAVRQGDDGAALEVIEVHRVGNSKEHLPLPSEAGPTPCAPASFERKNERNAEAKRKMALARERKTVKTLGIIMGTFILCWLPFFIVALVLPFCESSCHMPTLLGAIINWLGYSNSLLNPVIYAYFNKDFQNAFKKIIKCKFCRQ

[2] = target: T1, 5-hydroxytryptamine receptor 1A; test: In vitro inhibitory concentration required against [3H]8-OH-DPAT binding to cloned human 5-hydroxytryptamine 1A receptor
[3] = target: T2, 5-hydroxytryptamine receptor 2A (Rattus norvegicus, UniProt P14842); test: In vitro relative agonist activity against 5-hydroxytryptamine 2A using PI assay in rat vascular smooth muscle cells; format: functional
T2 sequence (P14842 whole entry): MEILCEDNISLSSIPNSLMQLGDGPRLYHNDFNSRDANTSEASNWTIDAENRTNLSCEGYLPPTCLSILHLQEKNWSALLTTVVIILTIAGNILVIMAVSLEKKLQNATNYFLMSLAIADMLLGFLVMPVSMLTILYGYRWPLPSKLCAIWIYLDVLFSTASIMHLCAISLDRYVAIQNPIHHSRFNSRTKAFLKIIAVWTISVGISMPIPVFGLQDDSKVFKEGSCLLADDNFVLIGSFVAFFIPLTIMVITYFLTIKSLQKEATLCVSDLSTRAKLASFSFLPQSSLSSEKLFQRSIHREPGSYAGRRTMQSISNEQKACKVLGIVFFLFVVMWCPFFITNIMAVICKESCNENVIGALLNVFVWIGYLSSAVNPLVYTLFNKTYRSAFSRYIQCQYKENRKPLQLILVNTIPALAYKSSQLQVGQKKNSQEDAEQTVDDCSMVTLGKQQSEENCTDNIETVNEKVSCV

[4] = target: 5-hydroxytryptamine receptor 2A (Rattus norvegicus) (UniProt P14842); test: In vitro efficacy against rat 5-hydroxytryptamine 2A receptor was determined by using CA+ assay (Emax)
Sequence of 5-hydroxytryptamine receptor 2A (Rattus norvegicus) (P14842 whole entry): as above

[5] = target: 5-hydroxytryptamine receptor 2A (Rattus norvegicus) (UniProt P14842); test: In vitro efficacy against rat 5-hydroxytryptamine 2A receptor determined by using PI assay (Emax)
[6] = target: T3, 5-hydroxytryptamine receptor 2C (Homo sapiens, UniProt P28335); test: Inhibitory constant against cloned human 5-hydroxytryptamine 2C receptor using with [125I]- DOI radioligand
T3 sequence (P28335 whole entry): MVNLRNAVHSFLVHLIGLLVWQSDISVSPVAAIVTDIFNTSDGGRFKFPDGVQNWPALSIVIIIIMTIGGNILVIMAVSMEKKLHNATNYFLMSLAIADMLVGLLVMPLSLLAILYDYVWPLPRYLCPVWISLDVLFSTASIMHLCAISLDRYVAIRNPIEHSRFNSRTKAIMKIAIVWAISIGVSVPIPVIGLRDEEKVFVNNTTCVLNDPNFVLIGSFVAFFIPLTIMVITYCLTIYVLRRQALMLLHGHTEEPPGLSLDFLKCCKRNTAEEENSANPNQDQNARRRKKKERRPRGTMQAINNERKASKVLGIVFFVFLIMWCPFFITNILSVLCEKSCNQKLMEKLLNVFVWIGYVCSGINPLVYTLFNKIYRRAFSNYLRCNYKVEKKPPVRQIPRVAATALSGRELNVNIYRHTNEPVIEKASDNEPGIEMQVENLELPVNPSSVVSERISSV

[7] = target: T2, 5-hydroxytryptamine receptor 2A; test: In vitro inhibition of [125I]DOI binding to 5-hydroxytryptamine 2A receptor in rat cerebral cortex; format: tissue-based
[8] = target: T4, 5-hydroxytryptamine receptor 2A (Homo sapiens, UniProt P28223); test: Inhibitory constant against cloned human 5-hydroxytryptamine 2A receptor using with [125I]- DOI radioligand
[9] = target: 5-hydroxytryptamine receptor 2B (Homo sapiens, UniProt P41595); test: Inhibitory constant against cloned human 5-hydroxytryptamine 2B receptor using with [125I]- DOI radioligand
Sequence of 5-hydroxytryptamine receptor 2B (P41595 whole entry): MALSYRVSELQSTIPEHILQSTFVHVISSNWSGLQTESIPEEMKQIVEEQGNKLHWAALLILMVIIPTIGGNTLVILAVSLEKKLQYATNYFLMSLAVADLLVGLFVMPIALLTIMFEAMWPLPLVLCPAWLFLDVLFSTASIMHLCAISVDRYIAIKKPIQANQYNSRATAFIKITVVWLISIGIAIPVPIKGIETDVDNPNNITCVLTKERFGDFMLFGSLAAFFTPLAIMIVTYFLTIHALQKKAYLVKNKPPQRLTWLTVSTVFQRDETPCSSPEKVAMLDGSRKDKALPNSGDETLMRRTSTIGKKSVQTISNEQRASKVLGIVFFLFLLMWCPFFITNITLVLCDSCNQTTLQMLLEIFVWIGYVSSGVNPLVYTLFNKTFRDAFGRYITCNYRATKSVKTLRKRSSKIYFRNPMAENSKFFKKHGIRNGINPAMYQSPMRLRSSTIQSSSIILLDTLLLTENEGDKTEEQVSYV

[10] = target: T2, 5-hydroxytryptamine receptor 2A; test: In vitro inhibitory constant against [125I]DOI binding to 5-hydroxytryptamine 2A receptor in rat cerebral cortex; format: tissue-based
Monkey [11] = test: Tested for the ability to lower IOP in conscious cynomolgus monkeys with laser-induced ocular hypertension after 1 hr postdose of the compound; format: functional, Cercopithecidae, Eye
Monkey [12] = test: Tested for the ability to lower IOP in conscious cynomolgus monkeys with laser-induced ocular hypertension after 3h postdose of the compound; format: functional, Cercopithecidae, Eye
Monkey [13] = test: Tested for the ability to lower IOP in conscious cynomolgus monkeys with laser-induced ocular hypertension after 6 hr postdose of the compound; format: functional, Cercopithecidae, Eye
[14] = target: T4, 5-hydroxytryptamine receptor 2A; test: Inhibitory constant determined against cloned human 5-hydroxytryptamine 2A receptor using with [125I]- DOI radioligand
Target sequence in this assay (P28223 whole entry): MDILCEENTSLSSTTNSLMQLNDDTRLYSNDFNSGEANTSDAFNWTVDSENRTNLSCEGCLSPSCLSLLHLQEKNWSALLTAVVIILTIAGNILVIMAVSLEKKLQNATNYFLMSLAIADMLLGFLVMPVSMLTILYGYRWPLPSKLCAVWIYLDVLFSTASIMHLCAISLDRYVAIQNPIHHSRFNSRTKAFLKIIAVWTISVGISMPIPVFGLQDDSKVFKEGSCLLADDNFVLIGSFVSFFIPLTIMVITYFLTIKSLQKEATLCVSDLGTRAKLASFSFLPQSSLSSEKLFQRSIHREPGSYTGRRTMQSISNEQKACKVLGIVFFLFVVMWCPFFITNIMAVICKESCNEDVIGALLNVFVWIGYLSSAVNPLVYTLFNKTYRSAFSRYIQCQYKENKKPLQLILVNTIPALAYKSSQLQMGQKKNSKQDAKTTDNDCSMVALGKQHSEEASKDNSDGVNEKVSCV

[15] = target: 5-hydroxytryptamine receptor 1B (Homo sapiens, UniProt P28222); test: Inhibitory constant against 5-hydroxytryptamine 1B receptor using with [125I]- cyanopindolol radioligand
Sequence of 5-hydroxytryptamine receptor 1B (P28222 whole entry): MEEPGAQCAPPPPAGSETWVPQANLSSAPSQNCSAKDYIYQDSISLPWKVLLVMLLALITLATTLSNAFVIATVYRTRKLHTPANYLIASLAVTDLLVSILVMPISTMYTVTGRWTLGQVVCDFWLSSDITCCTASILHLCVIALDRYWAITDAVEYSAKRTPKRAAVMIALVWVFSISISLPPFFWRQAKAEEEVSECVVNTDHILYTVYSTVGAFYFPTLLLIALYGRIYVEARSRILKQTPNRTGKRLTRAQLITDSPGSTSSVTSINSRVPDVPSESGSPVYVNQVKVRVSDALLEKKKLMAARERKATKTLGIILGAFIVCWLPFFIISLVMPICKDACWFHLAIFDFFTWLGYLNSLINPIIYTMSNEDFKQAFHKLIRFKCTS

[16] = target: 5-hydroxytryptamine receptor 1D (Homo sapiens, UniProt P28221); test: Inhibitory constant against human 5-hydroxytryptamine 1D receptor using [3H]5-CT radioligand
[17] = target: 5-hydroxytryptamine receptor 6 (Homo sapiens, UniProt P50406); test: Inhibitory constant against human 5-hydroxytryptamine 6 receptor using [3H]LSD radioligand
[18] = target: 5-hydroxytryptamine receptor 3A (Homo sapiens, UniProt P46098); test: Inhibitory constant against 5-hydroxytryptamine 3 receptor using [3H]GR-65630 radioligand
Sequence of 5-hydroxytryptamine receptor 3A (P46098 whole entry): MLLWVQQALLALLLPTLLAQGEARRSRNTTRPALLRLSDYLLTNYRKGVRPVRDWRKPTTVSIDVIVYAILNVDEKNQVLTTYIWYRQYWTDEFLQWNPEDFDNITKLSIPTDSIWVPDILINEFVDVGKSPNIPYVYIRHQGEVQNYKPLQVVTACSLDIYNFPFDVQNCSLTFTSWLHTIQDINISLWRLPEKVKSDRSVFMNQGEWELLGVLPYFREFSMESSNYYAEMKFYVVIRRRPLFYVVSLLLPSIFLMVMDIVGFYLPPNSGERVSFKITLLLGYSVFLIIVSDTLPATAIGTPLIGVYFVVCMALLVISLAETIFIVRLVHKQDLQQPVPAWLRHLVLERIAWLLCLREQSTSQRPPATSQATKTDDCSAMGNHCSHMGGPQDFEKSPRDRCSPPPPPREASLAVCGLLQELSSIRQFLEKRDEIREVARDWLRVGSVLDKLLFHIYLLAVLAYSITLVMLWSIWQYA

[19] = target: 5-hydroxytryptamine receptor 4 (Homo sapiens, UniProt Q13639); test: Inhibitory constant against 5-hydroxytryptamine 4 receptor using [3H]GR-113808 radioligand
Sequence of 5-hydroxytryptamine receptor 4 (Q13639 whole entry): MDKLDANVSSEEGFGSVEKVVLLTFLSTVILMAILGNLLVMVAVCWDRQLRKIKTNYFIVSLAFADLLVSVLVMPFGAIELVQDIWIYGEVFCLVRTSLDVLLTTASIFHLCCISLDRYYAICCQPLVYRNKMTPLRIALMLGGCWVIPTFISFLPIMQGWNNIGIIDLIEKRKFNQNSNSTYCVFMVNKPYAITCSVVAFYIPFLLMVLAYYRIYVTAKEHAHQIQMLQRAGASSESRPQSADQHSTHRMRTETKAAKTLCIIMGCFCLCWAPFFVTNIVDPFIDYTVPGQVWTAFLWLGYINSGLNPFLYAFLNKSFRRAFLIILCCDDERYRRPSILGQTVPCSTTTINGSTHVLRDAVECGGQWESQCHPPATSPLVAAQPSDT

[20] = target: 5-hydroxytryptamine receptor 5A (Homo sapiens, UniProt P47898); test: Inhibitory constant against human 5-hydroxytryptamine 5A receptor using [3H]LSD radioligand
Sequence of 5-hydroxytryptamine receptor 5A (P47898 whole entry, looked up): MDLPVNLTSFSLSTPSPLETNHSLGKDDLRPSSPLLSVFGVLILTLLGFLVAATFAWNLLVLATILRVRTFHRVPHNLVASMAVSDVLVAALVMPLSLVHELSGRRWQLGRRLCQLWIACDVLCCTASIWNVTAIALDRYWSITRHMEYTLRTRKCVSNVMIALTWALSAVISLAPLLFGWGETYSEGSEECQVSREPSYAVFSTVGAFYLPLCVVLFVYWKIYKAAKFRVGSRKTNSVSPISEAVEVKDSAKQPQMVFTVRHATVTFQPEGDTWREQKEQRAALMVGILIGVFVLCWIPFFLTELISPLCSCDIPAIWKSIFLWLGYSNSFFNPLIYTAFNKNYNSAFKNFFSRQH

[21] = target: Alpha-2A adrenergic receptor (Homo sapiens, UniProt P08913); test: (§1) Inhibitory concentration required against Alpha-2A adrenergic receptor using [3H]clonidine radioligand
Sequence of Alpha-2A adrenergic receptor (P08913 whole entry): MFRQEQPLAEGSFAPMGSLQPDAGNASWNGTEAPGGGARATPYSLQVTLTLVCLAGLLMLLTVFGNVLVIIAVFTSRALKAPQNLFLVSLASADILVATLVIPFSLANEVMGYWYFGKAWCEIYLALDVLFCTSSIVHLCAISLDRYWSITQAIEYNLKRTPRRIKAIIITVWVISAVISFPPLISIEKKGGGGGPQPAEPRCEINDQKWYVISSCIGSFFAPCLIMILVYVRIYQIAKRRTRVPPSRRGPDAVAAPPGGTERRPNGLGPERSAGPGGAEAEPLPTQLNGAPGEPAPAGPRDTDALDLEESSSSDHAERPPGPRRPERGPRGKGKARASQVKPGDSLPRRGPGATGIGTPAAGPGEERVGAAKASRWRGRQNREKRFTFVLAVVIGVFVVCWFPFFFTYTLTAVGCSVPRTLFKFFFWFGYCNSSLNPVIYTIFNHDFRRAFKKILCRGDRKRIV

[22] = target: T5, Alpha-2C adrenergic receptor (Homo sapiens, UniProt P18825); test: as §1
[23] = target: Alpha-1B adrenergic receptor (Rattus norvegicus, UniProt P15823); test: Inhibitory constant against Alpha-1B adrenergic radioligand
[24] = target: Alpha-2B adrenergic receptor (Rattus norvegicus, UniProt P19328); test: Inhibitory constant against Alpha-2B adrenergic receptor using [3H]MK-912 radioligand
Sequence of Alpha-2B adrenergic receptor (P19328 whole entry): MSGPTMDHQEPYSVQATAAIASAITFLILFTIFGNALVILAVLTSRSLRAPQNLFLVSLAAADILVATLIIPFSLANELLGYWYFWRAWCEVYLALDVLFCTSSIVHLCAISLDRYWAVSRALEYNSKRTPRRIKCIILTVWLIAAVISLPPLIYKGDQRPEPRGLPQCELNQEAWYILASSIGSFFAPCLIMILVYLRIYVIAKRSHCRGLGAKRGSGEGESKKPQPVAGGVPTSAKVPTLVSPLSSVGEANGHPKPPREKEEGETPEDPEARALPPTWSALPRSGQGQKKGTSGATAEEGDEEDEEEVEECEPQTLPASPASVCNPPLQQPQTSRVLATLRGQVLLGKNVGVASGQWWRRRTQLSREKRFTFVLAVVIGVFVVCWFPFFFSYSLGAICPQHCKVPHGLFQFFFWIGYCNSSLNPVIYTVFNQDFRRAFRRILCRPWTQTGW

[25] = target: T6, Alpha-1A adrenergic receptor (Rattus norvegicus, UniProt P43140); test: Inhibitory constant against alpha-1A receptor using [3H]-7-MeO prazosin radioligand
T6 sequence (P43140 whole entry): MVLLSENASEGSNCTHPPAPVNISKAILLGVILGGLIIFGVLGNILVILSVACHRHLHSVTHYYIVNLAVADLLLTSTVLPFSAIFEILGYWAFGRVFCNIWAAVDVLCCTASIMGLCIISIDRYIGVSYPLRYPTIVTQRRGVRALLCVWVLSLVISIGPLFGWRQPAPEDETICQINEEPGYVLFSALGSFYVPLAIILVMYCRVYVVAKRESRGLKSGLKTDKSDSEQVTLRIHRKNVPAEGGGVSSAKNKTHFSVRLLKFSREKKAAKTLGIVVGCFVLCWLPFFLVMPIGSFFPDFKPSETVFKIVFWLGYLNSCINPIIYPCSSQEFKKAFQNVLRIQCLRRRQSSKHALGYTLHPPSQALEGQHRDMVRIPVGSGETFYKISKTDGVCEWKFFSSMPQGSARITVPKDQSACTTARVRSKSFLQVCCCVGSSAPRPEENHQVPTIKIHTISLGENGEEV

[26] = target: Sodium-dependent noradrenaline transporter (Homo sapiens, UniProt P23975); test: Inhibitory constant against norepinephrine transporter receptor using [3H]radioligand
[27] = target: Sodium-dependent serotonin transporter (Homo sapiens, UniProt P31645); test: Inhibitory constant against human serotonin transporter using [3H]N-Me-citalopram radioligand
Sequence of Sodium-dependent serotonin transporter (P31645 whole entry): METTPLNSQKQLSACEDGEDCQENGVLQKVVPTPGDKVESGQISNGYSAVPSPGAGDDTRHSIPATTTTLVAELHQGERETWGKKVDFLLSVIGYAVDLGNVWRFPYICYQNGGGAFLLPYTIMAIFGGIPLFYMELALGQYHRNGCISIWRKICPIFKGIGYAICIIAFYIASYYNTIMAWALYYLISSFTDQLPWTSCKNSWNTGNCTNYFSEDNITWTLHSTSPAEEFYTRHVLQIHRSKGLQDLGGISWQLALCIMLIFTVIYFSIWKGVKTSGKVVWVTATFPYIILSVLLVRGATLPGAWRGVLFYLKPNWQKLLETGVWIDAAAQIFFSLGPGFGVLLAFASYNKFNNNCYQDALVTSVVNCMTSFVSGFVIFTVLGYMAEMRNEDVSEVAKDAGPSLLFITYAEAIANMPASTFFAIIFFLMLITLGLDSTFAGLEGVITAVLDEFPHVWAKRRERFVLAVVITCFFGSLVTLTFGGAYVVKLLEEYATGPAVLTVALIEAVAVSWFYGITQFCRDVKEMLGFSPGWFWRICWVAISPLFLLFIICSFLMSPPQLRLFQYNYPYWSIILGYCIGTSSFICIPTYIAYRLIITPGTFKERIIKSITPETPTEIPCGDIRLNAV

[28] = target: 5-hydroxytryptamine receptor 7 (Homo sapiens, UniProt P34969); test: Inhibitory constant against human 5-hydroxytryptamine 7 receptor using [3H]LSD radioligand
[29] = target: T6, Alpha-1A adrenergic receptor; test: Inhibitory constant against Alpha-1A adrenergic receptor using [3H]-7-MeO prazosin radioligand
[30] = target: T6, Alpha-1A adrenergic receptor; test: Inhibitory constant against Alpha-1B adrenergic receptor using [3H]-7-MeO prazosin radioligand
[31] = target: T5, Alpha-2C adrenergic receptor; test: Inhibitory concentration required against Alpha-2C adrenergic receptor using [3H]clonidine radioligand

Row | SMILES | EC50 [1] [nM] | IC50 [2] [nM] | EC50 [3] [nM] | Efficacy [4] [%] | Efficacy [5] [%] | Ki [6] [nM] | IC50 [7] [nM] | Ki [8] [nM] | Ki [9] [nM] | Ki [10] [nM] | Reduction (Monkey [11]) [%] | Reduction (Monkey [12]) [%] | Reduction (Monkey [13]) [%] | Ki [14] [nM] | other results
1 | COc1ccc2[nH]cc(CC(C)N)c2c1 (stereo not given) | 564 | 86.4 | 285 | 96 | 107 | 8.3 | 4.4 | 4.6 | 7.8 | 1.6 | 21.6 | 35.2 | 33.4 | – | –
2 | C[C@@H](N)Cc1c[nH]c2ccc3c(c12)CCCO3 | – | 8650 | 292 | 71 | 83 | 20 | 1.5 | – | 19 | 0.5 | <12.7 | <24.8 | <32.5 | 3.6 | –
3 | NCCc1c[nH]c2ccc3c(c12)CCCO3 | – | 287 | 181 | 99 | 99 | 6.3 | 1.8 | – | 14 | 0.6 | – | – | – | 4.9 | –
4 | CC(N)Cc1c[nH]c2ccc(O)cc12 (stereo not given) | 378 | 19.6 | – | 99 | 98 | – | – | 12 | 13 | – | – | – | – | – | –
5 | Cn1cc(CCN)c2c3c(ccc21)OCCC3 | – | 8410 | 213 | 70 | 96 | – | 2.8 | – | – | 1.1 | – | – | – | 8.2 | –
6 | CC(N)Cc1cn(C)c2ccc3c(c12)CCCO3 (stereo not given) | > 10000 | 12200 | 134 | 79 | 102 | 2.7 | 0.5 | 28 | 11 | 0.2 | <18.8 | <28 | <26.1 | – | –
7 | C[C@H](N)Cc1c[nH]c2ccc3c(c12)CCCO3 | – | > 10000 | 80.1 | 103 | 90 | 3.4 | 0.5 | 2 | 5.3 | 0.2 | <18.1 | <33.2 | <37 | – | Ki [15]: 3300 nM; Ki [16]: > 10000 nM; Ki [17]: 2200 nM; Ki [18]: > 10000 nM; Ki [19]: 1700 nM; Ki [20]: > 10000 nM; IC50 [21]: 19000 nM; IC50 [22]: 14000 nM; Ki [23]: > 10000 nM; Ki [24]: > 10000 nM; Ki [25]: > 10000 nM; Ki [26]: > 10000 nM; Ki [27]: > 10000 nM
8 | CC(N)Cc1c[nH]c2ccc3c(c12)CCCO3 (stereo not given) | > 10000 | 10900 | – | 97 | 81 | 5.5 | 0.7 | 3.6 | 13 | 0.3 | <16 | <28 | <22.9 | – | Ki [15]: > 10000 nM; Ki [17]: 400 nM; Ki [18]: > 10000 nM; Ki [19]: 1800 nM; Ki [20]: 1900 nM; Ki [28]: 24000 nM; IC50 [21]: > 10000 nM; Ki [24]: 10000 nM; Ki [29]: > 30000 nM; Ki [30]: > 30000 nM; IC50 [31]: > 30000 nM; Ki [26]: > 30000 nM; Ki [27]: > 10000 nM
9 | COc1cc(C[C@@H](C)N)c(OC)cc1I | – | – | 27.7 | 33 | – | 4 | 0.4 | – | 18 | 0.1 | 11 | 25.3 | 34.4 | – | –
10 | CN(C)CCc1c[nH]c2ccc3c(c12)CCCO3 | – | 562 | – | 47 | 63 | 16 | – | – | 26 | – | – | – | – | 17 | –
